Assay results as given in PMC1192819, “Molecular cloning and characterization of a nuclear androgen receptor activated by 11-ketotestosterone” (Reproductive biology and endocrinology : RB&E, 2005).

Columns and labels:
[1] = molecular target: T1, AR in stickleback kidney cytosolic extracts (Gasterosteus aculeatus, UniProt Q801Z1); test: Ligand competition assay with 1 nM [3H]-DHT, kidney cytosolic extracts; type: binding, three-spined stickleback (Gasterosteus aculeatus)
T1 sequence (Q801Z1 1-682): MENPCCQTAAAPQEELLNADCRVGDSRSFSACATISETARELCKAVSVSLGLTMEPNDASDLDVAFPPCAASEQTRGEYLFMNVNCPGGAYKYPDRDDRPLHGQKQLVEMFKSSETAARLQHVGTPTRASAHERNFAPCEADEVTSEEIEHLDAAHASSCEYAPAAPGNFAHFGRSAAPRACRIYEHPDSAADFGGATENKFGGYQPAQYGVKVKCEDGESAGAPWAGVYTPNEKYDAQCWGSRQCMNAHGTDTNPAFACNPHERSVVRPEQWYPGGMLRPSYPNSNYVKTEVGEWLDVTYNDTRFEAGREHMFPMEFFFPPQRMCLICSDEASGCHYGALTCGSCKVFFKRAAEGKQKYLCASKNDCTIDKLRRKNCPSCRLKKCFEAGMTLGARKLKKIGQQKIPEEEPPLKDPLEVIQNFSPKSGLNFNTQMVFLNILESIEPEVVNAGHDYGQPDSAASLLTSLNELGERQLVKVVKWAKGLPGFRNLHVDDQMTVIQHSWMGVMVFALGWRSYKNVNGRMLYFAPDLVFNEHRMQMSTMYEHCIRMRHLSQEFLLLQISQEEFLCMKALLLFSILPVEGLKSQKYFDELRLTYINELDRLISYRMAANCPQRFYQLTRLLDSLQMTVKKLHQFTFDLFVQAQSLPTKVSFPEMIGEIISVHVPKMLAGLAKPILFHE
Description: (§1) The steroid specificity of receptor binding was examined using a competitive binding assay. […] Following incubation, the reaction was terminated by addition of DCC and centrifugation and the specific binding in each tube was determined as described above.

[2] = system: AR protein and AR mRNA in stickleback kidney; test: Hormone regulation of kidney AR protein (radioreceptor assay) and AR mRNA (slot blot); type: in vivo, three-spined stickleback (Gasterosteus aculeatus); settings: data not shown; for regulation of AR protein (radioreceptor assay): sticklebacks exposed for 6 days
Description: (§2) The fish were anesthetized with 0.1% (v/v) 2-phenoxyethanol (Sigma, St. Louis, MO, USA) and implanted intraperitoneally with Silclear silicone tubing (10-mm length, 0.6-mm inner diameter, 1.2-mm outer diameter) containing steroids dissolved in cocoa butter. […] KA was used as this steroid is converted into KT by the fish. Tubes containing cocoa butter alone were used as controls. Following implantation the fish were maintained in 50-liter aquaria containing brackish water (0.5% salinity) at 20°C under LD 16:8 h. At sampling fish were decapitated and the kidneys were excised, frozen using liquid nitrogen, and stored at -70°C. A number of experiments were performed as follows. Spiggin mRNA was measured in post-breeding females that were dissected 2 days following implantation of tubes. Cytosolic androgen-receptors were measured in females and in castrated males. Males were castrated under anesthesia as above, by making a 1.5 mm long incision into the abdominal cavity on each side and removing the testes using forceps. The females and the castrated males were implanted with control and high dose tubes and dissected after 6 days. AR mRNA was studied in females implanted for 12 h, 2 and 16 days (separate experiments) with control and high dose tubes and in males castrated as above and implanted for 10 days with control tubes and high doses of KA or E2.
(§3) Total RNA was extracted using Tri Reagent™ (Sigma). Aliquots of 10 μg of total RNA were mixed with denaturing solution (6 × SSC, 7% (v/v) formaldehyde) and transferred onto a nylon membrane (Amersham Pharmacia Biotech) using a Minifold II Slot Blot Apparatus (Schleicher and Schuell, Keene, NH, USA). Membranes were probed using either a randomly primed [α-^32P]-dCTP radiolabelled AR cDNA fragment (918 base pairs) that was isolated by reverse transcriptase-polymerase chain reaction and sequenced as above, or a randomly primed [α-^32P]-dCTP radiolabelled spiggin-α cDNA. Hybridizations were performed at 65°C overnight (6 × SCC, 0.1% (w/v) SDS, 100 μg ml^-1 tRNA, and 5 × Denhardt's solution). The membranes were washed for 2 × 30 minutes at 42°C and 65°C in 0.1 × SCC, 0.1% (w/v) SDS whereafter Hyperfilm™-MP film was exposed at -70°C. The films were visualized using Curix 60 Film Developer. Following AR and spiggin mRNA determination the membranes were stripped and analyzed for 18S rRNA using a cDNA fragment as internal control. Each AR or spiggin transcript was then semi-quantified using Quantity ONE 4.2.3 (Bio-Rad, Laboratories, Inc, Hercules, CA, USA) in relation to its internal 18S transcript.
Aliquots (250 μl) of the nuclear or cytosolic preparations were added to each tube, the tubes were vortexed and incubated over night at 4°C. To stop the binding reaction, 250 μl DCC was added to each tube. The tubes were vortexed and the suspensions were incubated for 5 min at 4°C, before spinning at 3,000 × g at 4°C for 5 min. The supernatants were decanted into 7 ml scintillation vials, 5 ml of standard scintillation cocktail was added and the radioactivity in each sample was measured in a liquid scintillation counter (Beckman LS 6000SC, Beckman Instruments, Fullerton, CA). The procedure used for the expressed recombinant ARβ2 was modified as follows. […] The expressed proteins were diluted 1:100 and aliquots (100 μl) were added to each reaction tube. The tubes were vortexed and incubated over night at 4°C. To stop the binding reaction, 200 μl DCC was added to each tube. The tubes were vortexed and the suspension were incubated for 5 min at 4°C, before spinning at 3,000 × g at 4°C for 5 min. 250 μl of the supernatant was transferred into 5 ml scintillation vials and 4 ml of standard scintillation cocktail was added before the radioactivity in each sample was measured in a liquid scintillation counter (Wallac 1409, Wallac Oy, Turku, Finland).

[3] = system: stickleback ARβ2; test: ARE-luciferase trans-activation assay, stickleback ARβ2 in transfected HepG2 and ZFL cells; type: cell-based, three-spined stickleback (Gasterosteus aculeatus); settings: 40 h, versus control
Description: Two liver epithelial cell lines were used to test receptor activity. HepG2 cells (ATCC, Manassas, VA) were maintained in DMEM supplemented with 10% FCS and non-essential amino acids. ZFL cells (ATCC) were maintained in 50% L-15 Leibovitz, 15% […] and 35% DMEM supplemented with 10% FCS (Gibco, Paisley, Scotland, UK) and 50 ng ml-1 EGF (Sigma). Cells were cultured at 37°C (HepG2) or 28°C (ZFL) in 5% CO2. The transfection experiments were initiated by replacing the tissue culture medium with fresh phenol-free medium supplemented with charcoal stripped FCS and the cells were seeded on 24-well plates. Transfections were performed at 90–95% confluence using 1,5 μl Lipofectamine 2000 (Invitrogen, Carlsbad, CA, USA) and 0,6 μg DNA per well. Transfected DNA contained 60 ng pRL (Promega), 270 ng androgen response element (ARE) luciferase reporter vector, 270 ng stickleback ARβ2 expression vector or 270 ng human AR expression vector (pCMVhAR) while 270 ng empty TNT cloning vector was used to control background luciferase levels following transfections. Two different ARE containing promoter constructs were tested, one containing 3 separate ARE (HRE; slp-ARU) and a second one construct (slp-HRE2) containing 4 copies of the ARE with high affinity for R1881, a synthetic androgen, and low affinity for dexamethasone, a synthetic glucocorticoid.
After 16 h the transfection medium was replaced with fresh phenol-free medium, supplemented with charcoal stripped FCS, containing different steroid hormones. The cells were exposed to the hormones for 40 h and luciferase levels were detected using the Dual Luciferase Assay kit (Promega) in a TD 20/20 Luminometer (Turner Designs, Sunnyvale, CA). For each cell line, transfection assay was performed for each concentration with n = 4 and the luciferase value of each assay were normalized to its corresponding Renilla luciferase activity. Each experiment was repeated a minimum of 3 times. The fold-induction is presented as luciferase values normalized against the control. The control levels were arbitrarily set to 1.0 for each cell line.

[4] = system: rainbow trout ARα; settings: COS-1 cell line; read-out: IC50 (ligand binding); cited from earlier work
[5] = molecular target: T2, stickleback ARβ2 (reticulocyte lysate) (Gasterosteus aculeatus, UniProt Q801Z2); test: Ligand competition assay with 1 nM [3H]-DHT, ARβ2 containing reticulocyte extract; type: binding, three-spined stickleback (Gasterosteus aculeatus)
T2 sequence (Q801Z2 1-735): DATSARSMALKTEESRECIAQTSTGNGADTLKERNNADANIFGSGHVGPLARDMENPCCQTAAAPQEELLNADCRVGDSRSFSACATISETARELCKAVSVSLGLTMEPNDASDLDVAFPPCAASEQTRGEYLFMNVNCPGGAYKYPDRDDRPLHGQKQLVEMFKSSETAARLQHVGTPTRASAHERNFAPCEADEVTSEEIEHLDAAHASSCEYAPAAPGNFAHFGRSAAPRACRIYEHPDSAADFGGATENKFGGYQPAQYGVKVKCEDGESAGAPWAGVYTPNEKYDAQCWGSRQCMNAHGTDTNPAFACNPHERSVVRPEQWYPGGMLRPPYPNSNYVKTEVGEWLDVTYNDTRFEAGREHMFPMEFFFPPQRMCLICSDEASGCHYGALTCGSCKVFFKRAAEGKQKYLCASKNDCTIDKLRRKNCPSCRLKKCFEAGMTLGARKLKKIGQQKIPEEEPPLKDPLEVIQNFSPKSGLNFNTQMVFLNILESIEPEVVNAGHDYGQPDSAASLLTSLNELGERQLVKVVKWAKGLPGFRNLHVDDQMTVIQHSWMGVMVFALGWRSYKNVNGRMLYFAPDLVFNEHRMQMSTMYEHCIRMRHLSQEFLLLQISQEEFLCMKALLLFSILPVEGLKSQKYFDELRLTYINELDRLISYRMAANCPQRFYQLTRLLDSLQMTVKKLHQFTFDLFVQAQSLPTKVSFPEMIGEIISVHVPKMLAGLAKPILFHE
Description: The excised AR pBK CMV clones were digested with XbaI and EcoRI and the inserts were gel purified prior to ligation into the pCMV-TNT vector (Promega) between XbaI and EcoRI. […] AR was expressed by introducing the pCMV-TNT into the TNT coupled reticulocyte lysate system (Promega) according to the manufacturer's instructions. The size of the expressed products was determined by addition of S^35-methionin to the reticulocyte lysate system. The obtained protein suspension was analyzed on a denaturing 8% SDS PAGE and the sizes were determined using prestained SDS-PAGE broad range protein molecular weight standard (Bio-Rad) and a control luciferase protein of 62 kDa included in the reticulocyte lysate system (Promega). For use in binding assays AR was expressed in the absence of radioactive S^35-methionein and stored at 4°C until further used in recombinant binding assay experiments.
as §1

[6] = system: spiggin mRNA in adult female stickleback kidney; test: Induction of spiggin mRNA in stickleback kidney after steroid implants (slot blot); type: in vivo, three-spined stickleback (Gasterosteus aculeatus)
Description: as §2, §3

[7] = system: spiggin mRNA in adult female stickleback kidney; settings: cited from earlier work

Row | Structure (SMILES) | binding observed (competition for [3H]-DHT) [1] | regulation of AR mRNA (slot blot) [2] | regulation of AR protein (radioreceptor assay) [2] | also measured
1 | C[C@@H](O)[C@@]1(O)CC[C@H]2[C@@H]3CCC4=CC(=O)CC[C@]4(C)[C@H]3CC[C@@]21C [17,20β-P, 17,20β-dihydroxy-4-pregnen-3-one] | not |  |  | 
2 | CC12CCC(=O)C=C1CCC1C2CCC2(C)C1CCC2(O)C(O)CO (stereo not drawn) [20β-S, 17,20β,21-trihydroxy-4-pregnen-3-one] | not |  |  | 
3 | C[C@]12CCC(=O)C[C@@H]1CC[C@@H]1[C@@H]2CC[C@]2(C)[C@@H](O)CC[C@@H]12 [DHT, 5α-dihydrotestosterone] |  | None of the three tested androgens regulated | None of the three tested androgens regulated | induction of luciferase activity ([3]; HepG2 cells): 4.1 fold; induction of luciferase activity ([3]; ZFL cells): 4.5 fold; IC50 [4]: 0.6 nM
4 | C[C@]12CC[C@@H]3c4ccc(O)cc4CC[C@H]3[C@@H]1CC[C@@H]2O [E2, 17β-estradiol] |  | repressor | repressor | EC50 ([5]; read-out: EC50 (competition for [3H]-DHT binding)): 64.61 ± 0.28 nM
5 | C[C@]12CCC(=O)C=C1CC[C@@H]1[C@@H]2[C@@H](O)C[C@@]2(C)[C@H]1CC[C@]2(O)C(=O)CO [F, cortisol] | not |  |  | binding (competition for [3H]-DHT) [5]: poor binding
6 | C[C@]12CCC(=O)C=C1CC[C@@H]1[C@@H]2C(=O)C[C@]2(C)C(=O)CC[C@@H]12 [KA, 11-ketoandrostenedione] |  | None of the three tested androgens regulated | None of the three tested androgens regulated | effectiveness at increasing kidney spiggin mRNA levels relative to T ([6]; 25 μg implant dose, females): 50 times; increase in spiggin mRNA levels ([6]; females implanted with 25 μg KA, 2 days, versus control): 30 fold; spiggin mRNA induction after longer exposures ([7]; 16 days exposure): only observed with KA
7 | C[C@]12CC[C@H]3[C@@H](CCC4=CC(=O)CC[C@@]43C)[C@@H]1CC[C@@H]2O [T, testosterone] |  | None of the three tested androgens regulated | None of the three tested androgens regulated | spiggin induction ([6]; 1 μg implant dose, females): not inducing spiggin production
8 | CC(C)C(=O)Nc1ccc([N+](=O)[O-])c(C(F)(F)F)c1 [flutamide] |  |  |  | blocking of androgen induction of spiggin protein and mRNA synthesis ([7]; anti-androgen, ref 25 and Olsson, Berg, Lindberg, unpublished results): can be blocked
